Experimental data: patent publication US20240417408A1, “SMALL MOLECULE INHIBITORS OF KRAS G12C MUTANT” (MERCK SHARP & DOHME CORP., priority 2021, published 2024)

How the values were obtained:
[1] = biological target: T1, Recombinant KRAS G12C mutant protein (amino acids 1-169, SEQ ID NO: 1) (Homo sapiens, UniProt P01116, G12C); assay: Test Example 1: inhibitory activity on KRAS G12C nucleotide (GDP-GTP) exchange reaction in vitro; type: biochemical; conditions: BODIPY FL GDP-bound KRAS G12C incubated with compound at 25° C. for 1 hour, then SOS1 and GMPPNP, read-out: GNE IC50
T1 construct: His6 (N); TEV protease site (ENLYFQG; named from own knowledge) (N); made in house; host or cells: E. coli
T1 sequence (P01116 with tags, fused parts or gaps isoform P01116-2 G12C): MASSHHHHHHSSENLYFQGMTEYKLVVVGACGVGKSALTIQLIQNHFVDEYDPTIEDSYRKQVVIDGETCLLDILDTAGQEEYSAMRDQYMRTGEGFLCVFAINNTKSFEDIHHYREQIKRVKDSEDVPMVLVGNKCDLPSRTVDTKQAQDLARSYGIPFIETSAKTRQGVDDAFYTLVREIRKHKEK
Procedure: Test Example 1: Evaluation of inhibitory activity of compounds on KRAS G12C nucleotide (GDP-GTP) exchange reaction in vitro
Recombinant KRAS G12C mutant protein (amino acids 1-169, SEQ ID NO: 1) and cleaved recombinant SOS1 (amino acids 564-1049, SEQ ID NO:2) proteins were expressed in E. coli and purified by affinity chromatography.
To prepare BODIPY FL GDP-bound KRAS G12C protein, 50 μM KRAS G12C protein was incubated with 0.5 mM BODIPY FL GDP in a loading buffer (20 mM Tris-HCl (pH 7.5), 50 mM NaCl, 1 mM DTT and 2.5 mM EDTA) for 1 hour on ice. After the incubation, MgCl2 was added to a final concentration of 10 mM, followed by incubation at room temperature for 30 minutes. The mixture was allowed to pass through a NAP-5 column to remove free nucleotides and purified BODIPY FL GDP-bound KRAS G12C protein was used for compound evaluation.
For the measurement of the inhibitory activity of compounds on GDP-GTP exchange rate of recombinant KRAS G12C, BODIPY FL GDP-bound KRAS G12C protein was incubated with various concentrations of compound in a reaction buffer (20 mM Tris-HCl (pH 7.5), 100 mM NaCl, 1 mM MgCl2, 2 mM DTT, 0.1% Tween 20) at 25° C. for 1 hour. After the incubation, recombinant SOS1 and Guanosine-5′-[(β,γ)-imido]triphosphate, Tetralithium salt (GMPPNP) (Jena Bioscience GmbH) were added and incubated at room temperature for 30 minutes to proceed SOS1-dependent GDP-GTP exchange reaction on KRAS G12C. Replacement of BODIPY FL GDP by GMPPNP was measured by calculating the ratio of fluorescence intensities of BODIPY FL before and after the exchange reaction. Inhibition % was calculated by setting the fluorescence ratio from the reaction without test compound (DMSO control) and the fluorescence ratio from the reaction without SOS1 and GMPPNP as 0% and 100% inhibition, respectively. IC50 values were calculated from dose titration curve using curve fitting by XLfit software (IDBS).

[2] = biological target: T2, interaction between KRAS G12C and cRAF-RBD (Homo sapiens, UniProt P01116, G12C); assay: Test Example 2: inhibitory activity on interaction between KRAS G12C and cRAF (Alpha technology); type: binding; conditions: GMPPNP-bound KRAS G12C incubated with compound at 25° C. for 1 hour, then cRAF-RBD
T2 construct: TEV protease site (ENLYFQG); made in house; host or cells: E. coli
T2 sequence (P01116 with tags, fused parts or gaps isoform P01116-2 G12C): as above
Procedure: Test Example 2: Evaluation of Inhibitory Activity of Compounds on Interaction Between KRAS G12C and cRAF (In Vitro)
Interaction between recombinant KRAS G12C mutant protein (SEQ ID NO: 1) and cRAF RAS-binding domain (cRAF-RBD, amino acids 50-132, Jena Biosciences GmbH) was measured using Alpha technology (PerkinElmer Inc.).
Recombinant KRAS G12C protein with an N-terminal His-tag was expressed in E. coli and purified by affinity chromatography. To prepare GTP-bound form and GDP-bound form of KRAS G12C protein, 50 μM KRAS G12C protein was incubated with 1 mM GMPPNP (Jena Bioscience GmbH) and 1 mM GDP, respectively, in a loading buffer (20 mM Tris-HCl (pH 7.5), 50 mM NaCl, 1 mM DTT and 2.5 mM EDTA) for 1 hour on ice. After the incubation, MgCl2 was added to a final concentration of 10 mM, followed by incubation at room temperature for 30 minutes. The mixture was allowed to pass through a NAP-5 column to remove free nucleotides and purified, and the resultant nucleotide-bound KRAS G12C protein was used for compound evaluation.
For the measurement of the inhibitory activity of compounds on interaction between KRAS G12C and cRAF-RBD, GMPPNP-bound KRAS G12C protein was incubated with various concentrations of compound in a reaction buffer (20 mM Tris-HCl (pH 7.5), 100 mM NaCl, 1 mM MgCl2, 1 mM TCEP, 0.1% Tween 20) at 25° C. for 1 hour. After the incubation, recombinant cRAF-RBD and Alpha detection reagents were added and incubated at room temperature for 1.5 hours for binding. Interaction of KRAS G12C and cRAF-RBD was monitored by measuring Alpha signal. Inhibition % was calculated using the signal from the reaction without test compound (DMSO control) as 0% inhibition and the signal from the reaction using GDP-bound KRAS G12C in place of GMPPNP-bound KRAS G12C as 100% inhibition. IC50 values were calculated from dose titration curve using curve fitting by XLfit software (IDBS).

MIA PaCa-2 cells = assay: Test Example 3: growth inhibition activity on KRAS-G12C mutant cell line (MIA PaCa-2); type: cell-based; conditions: Homo sapiens, 72 h, MIA PaCa-2, 3-day culture, CellTiter-Glo 3D, read-out: CTX MiaPaCa IC50
Procedure: Test Example 3: Assay of Growth Inhibition Activity on KRAS-G12C Mutant Cell Line (MIA PaCa-2) (In Vitro)
MIA PaCa-2 cells (provided by Sumitomo Dainippon Pharma Co., Ltd.), which are a KRAS-G12C mutant human pancreas cancer cell line, were suspended in a 10% fetal bovine serum-containing RPMI1640 medium (manufactured by Fujifilm Wako Pure Chemical Corporation.). The cell suspension was seeded into each well of a 384-well U bottom microplate and cultured in an incubator containing 5% CO2 gas at 37° C. for 1 day. The compounds obtained in the Examples section were used as test compounds and were dissolved in DMSO, respectively, and each test compound was diluted with DMSO to give a concentration 500 times the final concentration. The resultant solution of the test compound in DMSO was diluted with the medium used for suspending cells and added to each well of the cell-culture plate to give a DMSO final concentration of 0.2%, followed by culture in an incubator containing 5% CO2 gas at 37° C. for another 3 days. The cell count after 3-day culture in the presence of the test compound was measured using CellTiter-Glo 3D Reagent (manufactured by Promega Corporation). To all cells were added with CellTiter-Glo 3D Reagent and mixed for 10 minutes. 30 minutes after mixing, luminescence was measured by a plate reader. The growth inhibition rate was calculated from the following equation, and the concentration of the test compound at which 50% inhibition was achieved (IC50 (nM)) was determined.
[formula] • T: the emission intensity in a well into which a test compound was added. • C: the emission intensity in a well into which a test compound was not added.

Structure (SMILES) | IC50 [1] [nM] | IC50 [2] [nM] | IC50 (MIA PaCa-2 cells) [nM]
C#Cc1cccc2cc(O)cc([C@@H]3Cc4nc(OCC5(CN(C)C)CC5)nc(N5CCN(C(=O)/C=C/CN6CCC(OC)CC6)[C@@H](CC#N)C5)c4CO3)c12 [Example 13, 2-((S)-4-((S)-2-((1-((dimeth-ylamino)methyl)cycloprop-yl)methoxy)-7-(8-ethynyl-3-hydroxynaphthalen-1-yl)-7,8-dihydro-5H-pyrano[4,3-d]pyrimidin-4-yl)-1-((E)-4-(4-methoxypiperidin-1-yl)-but-2-enoyl)piperazin-2-yl)-acetonitrile] | 0.91 | 51.3 | 6.21
C#Cc1cccc2cccc([C@@H]3Cc4nc(OCC5(CN6CCOCC6)CC5)nc(N5CCN(C(=O)/C=C/CN6CCC(OC)CC6)[C@@H](CC#N)C5)c4CO3)c12 [Example 12, 2-((S)-4-((S)-7-(8-ethynyl-naphthalen-1-yl)-2-((1-(morpholinomethyl)cyclo-propyl)methoxy)-7,8-dihydro-5H-pyrano[4,3-d]pyrimidin-4-yl)-1-((E)-4-(4-methoxypiperidin-1-yl)-but-2-enoyl)piperazin-2-yl)-acetonitrile] | 6.7 | 309 | 170
COC1CCN(C/C=C/C(=O)N2CCN(c3nc(OC[C@@H]4CCCN4C)nc4c3CO[C@H](c3cc(O)cc5cccc(Br)c35)C4)C[C@@H]2CC#N)CC1 [Example 10, 2-((S)-4-((S)-7-(8-bromo-3-hydroxynaphthalen-1-yl)-2-(((S)-1-methylpyrrolidin-2-yl)methoxy)-7,8-dihydro-5H-pyrano[4,3-d]pyrimidin-4-yl)-1-((E)-4-(4-methoxy-piperidin-1-yl)but-2-enoyl)-piperazin-2-yl)acetonitrile] | 0.73 | 107 | 10.1
CN1CCC[C@H]1COc1nc2c(c(N3CCN(C(=O)/C=C/CNC4CC5CCC(C4)O5)[C@@H](CC#N)C3)n1)COC(c1cccc3ccccc13)C2 (stereo partly drawn) [Example 3, 2-((2S)-1-((E)-4-((8-oxa-bicyclo[3.2.1]octan-3-yl)-amino)but-2-enoyl)-4-(2-(((S)-1-methylpyrrolidin-2-yl)methoxy)-7-(naphthalen-1-yl)-7,8-dihydro-5H-pyrano[4,3-d]pyrimidin-4-yl)piperazin-2-yl)acetonitrile] | 5.22 | 11500 | 100
C#Cc1cccc2cc(O)cc([C@@H]3Cc4nc(OCC5(CN6CCOCC6)CC5)nc(N5CCN(C(=O)/C=C/CN6CCC(OC)CC6)[C@@H](CC#N)C5)c4CO3)c12 [Example 1, 2-((S)-4-((S)-7-(8-ethynyl-3-hydroxynaphthalen-1-yl)-2-((1-(morpholinomethyl)cyclopropyl)methoxy)-7,8-dihydro-5H-pyrano[4,3-d]pyrimidin-4-yl)-1-((E)-4-(4-methoxypiperidin-1-yl)but-2-enoyl)piperazin-2-yl)acetonitrile] | 1.02 | 25.4 | 7.15
C#Cc1cccc2cc(O)cc([C@@H]3Cc4nc(OC[C@@H]5CCCN5C)nc(N5CCN(C(=O)/C=C/CN[C@H]6CC[C@H](OC)CC6)[C@@H](CC#N)C5)c4CO3)c12 [Example 8, 2-((S)-4-((S)-7-(8-ethynyl-3-hydroxynaphthalen-1-yl)-2-(((S)-1-methylpyrrolidin-2-yl)methoxy)-7,8-dihydro-5H-pyrano[4,3-d]pyrimidin-4-yl)-1-((E)-4-(((1r,4S)-4-methoxycyclohexyl)amino)-but-2-enoyl)piperazin-2-yl)-acetonitrile] | 0.54 | 64.4 | 6.4
C#Cc1cccc2cc(O)cc([C@@H]3Cc4nc(OC[C@@H]5CCCN5C)nc(N5C[C@H](CC#N)N(C(=O)/C=C/CN6CCC(OC)CC6)C[C@@H]5C)c4CO3)c12 [Example 15, 2-((2S,5S)-4-((S)-7-(8-ethynyl-3-hydroxynaph-thalen-1-yl)-2-(((S)-1-meth-ylpyrrolidin-2-yl)methoxy)-7,8-dihydro-5H-pyrano[4,3-d]pyrimidin-4-yl)-1-((E)-4-(4-methoxypiperidin-1-yl)-but-2-enoyl)-5-methyl-piperazin-2-yl)acetonitrile] | 103 | > 6670 | 1920
